According to patent US7709454B2, “Methods and compositions for inhibiting tumorigenesis” (New York University, priority 1997, dated 2010):
Read-outs that look alike come from different tables or passages of the source.

Experiments:
[1] = system: Nude Harlan Sprague-Dawley Mice/lung (A-549, Calu-1) tumors; conditions: cited from earlier work
A/J mice lung adenomas = conditions: 50 mg/kg/d; cited from earlier work
Glioma cell lines = conditions: cited from earlier work
Rat-1 cells = conditions: cited from earlier work
[2] = system: Human melanoma cell lines; conditions: cited from earlier work
[3] = system: SCID mice/melanoma (518A2, 607B); conditions: cited from earlier work
[4] = system: Various human tumor cell lines; conditions: cited from earlier work
[5] = system: Athymic mice/colon (DLD-1), H-Ras and K-Ras Fibroblast tumors; conditions: 10, 50 mg/kg/d; cited from earlier work
[6] = system: Nude mice/colon (DLD-1, HCT 116); conditions: 2, 5, 10, 40 mg/kg/d; cited from earlier work
Pancreas (MIA PaCa-2) = conditions: cited from earlier work
NIH3T3 = conditions: 2, 5, 10, 40 mg/kg/d; cited from earlier work
Nude mice/colon (DLD-1) = conditions: 40 mg/kg/d; cited from earlier work
Nude mice/lung (A549) = conditions: 40 mg/kg/d; cited from earlier work
Nude mice/lung (HTB177) = conditions: 40 mg/kg/d; cited from earlier work
Pancreas (AsPC-1) = conditions: 40 mg/kg/d; cited from earlier work
Pancreas (HPAF-11) = conditions: 40 mg/kg/d; cited from earlier work
Pancreas (Hs 700T) = conditions: 40 mg/kg/d; cited from earlier work
Colon (HCT116) = conditions: 40 mg/kg/d; cited from earlier work
Prostate (DU-145) = conditions: 40 mg/kg/d; cited from earlier work
Urinary bladder (EJ) = conditions: 40 mg/kg/d; cited from earlier work
[7] = system: Wap-H-RAS transgenic Mice/mammary, salivary tumors; conditions: 2, 5, 10, 40 mg/kg/d; cited from earlier work
[8] = system: human melanoma primary cultures and cell lines; assay: BrdU incorporation in melanoma primary cultures and cell lines; format: cell-based; conditions: 48 h; all four melanoma cell lines tested and Me-3
Method: Human foreskin melanocytes (Promocell) were grown in serum-free M2 medium (Promocell). WM-115, SK-MEL-2, SK-MEL-5, MeWo and COS7 cell lines (ATCC) were grown as specified. Tumors were chopped, incubated in E-MEM (Sigma) containing collagenase A (300 U/ml, Worthington) and hyaluronidase (100 U/ml, Sigma), mechanically dissociated and plated in E-MEM with 10% FBS, 1 mM sodium pyruvate (GIBCO) and 1 ng/ml EGF (GIBCO). […] All melanoma samples and BCC were obtained following approved protocols.
(§1) Commercial N-SHH (R&D Systems) was used at 100 nM. 5E1 anti-SHH blocking antibody (Hybridoma Bank, University of Iowa) was used at 10 μg/ml. Forskolin (FK) and 1,9-dideoxyforskolin (ddFK; Sigma) were used at 50 μM. […] MEK-1 (U0126; Promega), EGFR (AG1478; Biosource) and AKT (SH6; Alexis corporation) inhibitors were used at 1, 10, and 40 μM, respectively, dissolved in DMSO. Drug treatments were for 48 h in 2.5% serum. BrdU (Sigma) was pulsed at 4 μg/ml for 2 h before fixation followed by immunodetection with anti-BrdU antibodies (BD Biosciences). The number of viable cells was assessed by Trypan blue exclusion (Promega).

[9] = system: GLI1, PTCH1, BMI1, FOXM1, MITFM expression; assay: qPCR gene expression in melanoma cultures; format: cell-based, human; conditions: 4 h after inhibitor; all cultures
Method: Real-time quantitative PCR amplifications with different primers (Suppl. Materials) were carried out at 60° C. on an Opticon machine (MJ Research) using iQ™ SYBR Green supermix (Biorad) and values calculated using the standard curve method.
as §1

[10] = system: GLI1-transfected WM-115, SK-MEL-2 and SK-MEL-5; assay: GLI1-transfection enhanced BrdU incorporation, treatment with inhibitors; format: cell-based, human; conditions: 48 h treatment
Method: as §1

[11] = system: frog GLI1, frog Gli2, human GLI3 proteins; assay: localization of Myc-tagged GLI proteins in transfected COS7 cells; format: cell-based
Method: (§2) Cells were transfected (3 μg/p35 plate) with myc-tagged full-length CMV expression vectors for human GLI1 (Lee, J., Platt, K. A., Censullo, P. & Ruiz i Altaba, A. Gli1 is a target of Sonic hedgehog that induces ventral neural tube development. Development 124, 2537-2552 (1997)), HRAS-V12 (kindly provided by Dr. A. Pellicer, NYU) and LacZ with FUGENE (Roche). For selection, SK-MEL-2 and MeWo cells were transfected (4 μg/p60 plate) with PGK-neo and CMV-eGFP alone or in a 1/1/8 ratio with HRAS-12G, GLI3C′ΔClaI (Ruiz i Altaba 1999) or (frog) fGli2C′Δ (Ruiz i Altaba 1999), or in a 1/1/4/4 ratio with HRAS-12G/GLI3C′ΔClaI or HRAS-12G/fGli2C′Δ. After Geneticin (400 μg/ml, Gibco) selection for 20 days, colonies were stained with 0.5% crystal violet. Colony size was measured in duplicate dishes in three independent experiments. For subcellular localization, pCS2-Myc frog Gli2, […], human GLI3 and human GLI3C′ΔCla1 (Ruiz i Altaba, 1999) were transfected into COS-7 (ATCC) cells with our without HRAS (V12).

Frog Gli2 = assay: localization of myc-tagged GLI proteins in transfected COS-7 cells; format: cell-based; conditions: Gli2+RAS*+inhibitor, 1 hr
Method: as §2

[12] = system: Human GLI3Rep (GLI3C′ΔCla1); assay: as above; format: cell-based; conditions: GLI3Rep+RAS*+inhibitor, 1 hr
Method: as §2

Me-3, SK-Mel2 and WM-115 = assay: BrdU incorporation after MEK1 or AKT inhibitors (Example 2); format: cell-based, human; conditions: 48 h
Method: WM-115, SK-MEL-2 and COS7 cell lines (ATCC) were grown according to the specifications of the provider. The primary Me-3 melanoma (Stecca, B. et al. Melanocyte proliferation and melanoma growth, recurrence and metastasis require sustained SONIC HEDGEHOG-GLI signaling. Submitted. (2006)) was grown in E-MEM with 10% FBS (Hyclone), 1 mM sodium pyruvate (GIBCO) and 1 ng/ml EGF (GIBCO). Proliferating human melanocytes from foreskin (Promocell) were grown in M2 media (Promocell). Melanomas from ±6 month-old Tyr→NRAS^Q61K; Ink4a^−/− mice on a light coat color Dct^−/− background^13 were collected from the skin and lymph nodes. Tumors were dissociated and grown in E-MEM with 10% FBS, 1 mM sodium pyruvate (GIBCO) and 1 ng/ml EGF (GIBCO). Mouse embryonic fibroblasts (MEFs) were prepared from E14.5 Swiss Webster mouse embryos and grown in DMEM with 10% FBS.
Forskolin (FK) and 1,9-dideoxyforskolin (ddFK; Sigma) were used at 50 μM. MEK-1 (U0126; Promega), and AKT (SH6; Alexis corporation) inhibitors were used at 1 and 40 μM, respectively, dissolved in DMSO. U0126 and SH6 were used for 1 h, 48 h post-transfection. Leptomycin B (LMB; Sigma) was used at 5 nM for 6 h, 48 h post-transfection. BrdU (Sigma) was pulsed at 4 μg/ml for 2 h before fixation followed by immunodetection with anti-BrdU antibodies (BD Biosciences). The number of viable cells was assessed by Trypan blue exclusion (Promega). […]

SK-Mel2 cells = assay: Propidium iodide FACS analyses; format: cell-based, human; conditions: 24 h, compared to DMSO-treated cells
GLI1 and PTCH1 mRNA = assay: qPCR of GLI1 and PTCH1 mRNA after MEK-1 or AKT inhibitors; format: cell-based, human; conditions: 4 h after treatment
Method: Real-time quantitative PCR amplifications with different primers were carried out at 60° C. on an Opticon machine (MJ Research) using iQTM SYBR Green supermix (Biorad) and values calculated using the standard curve method. Human primer sequences were 5'→3': […] NO: 5) and […] NO: 6); […] NO: 11) and […] NO: 41) and NRAS-R: […] NO: 44); […] NO: 33) and […] NO: 34). For mice: […] NO: 45) and […] NO: 46); Sufu-[…] NO: 47) and Sufu-[…] NO: 48); […] NO: 49) and […] NO: 50); Tyrosinase-[…] NO: 51) and Tyrosinase-[…] NO: 53) and […] NO: 54); […] NO: 55) and […] NO: 56). […] Promega), and AKT (SH6; […] […] Control siRNA: […] […] Proc. Natl. Acad. Sci. USA.

GLI1, GLI3, GLI3R = assay: localization of transfected GLI proteins in SK-Mel2 cells; format: cell-based, human
Method: (§3) Forskolin (FK) and 1,9-dideoxyforskolin (ddFK; Sigma) were used at 50 μM. MEK-1 (U0126; Promega), and AKT (SH6; Alexis corporation) inhibitors were used at 1 and 40 μM, respectively, dissolved in DMSO. U0126 and SH6 were used for 1 h, 48 h post-transfection. Leptomycin B (LMB; Sigma) was used at 5 nM for 6 h, 48 h post-transfection. BrdU (Sigma) was pulsed at 4 μg/ml for 2 h before fixation followed by immunodetection with anti-BrdU antibodies (BD Biosciences). The number of viable cells was assessed by Trypan blue exclusion (Promega). […] (SEQ ID NO: 57) (target-validated from Ambion). […] SEQ ID NO: 58) (Sanchez, P. et al. Inhibition of prostate cancer proliferation by interference with SONIC HEDGEHOG-GLI1 signaling. Proc. Natl. Acad. Sci. USA. 101, 12561-12566 (2004)). siRNA transfections (0.2 μM) were performed with Oligofectamine (Invitrogen) for 48 h.
Cells were transfected (3 μg/p35 plate) with myc-tagged full-length CMV expression vectors with FUGENE (Roche). Transfections were at equimolar amounts unless otherwise specified with combinations of pCS2-Myc-tagged human GLI1, GLI3, GLI3R (GLI3C′ΔClaI), frog Gli2R (Gli2C′) (Ruiz i Altaba, A. Gli proteins encode context-dependent positive and negative functions: implications for development and disease. Development 126, 3205-3216 (1999), pCMV-HA-tagged GLI1 (ref. 20), HRAS^V12G (from A. Pellicer), NRAS^Q61K (Ackermann, J. et al. Metastasizing melanoma formation caused by expression of activated N-RasQ61K on an INK4a-deficient background. Cancer Res. 65, 4005-4011 (2005)), activated (myristoylated) myc-tagged AKT1 (Upstate), activated MEK1 (p45MAPKK^S222D; from J. Pouyssegur), Myc-tagged SUFUH (Kogerman, P. et al. Mammalian suppressor-of-fused modulates nuclear-cytoplasmic shuttling of Gli-1. Nat Cell Biol. 1, 312-319 (1999)), and pCMV-eGFP or pCMV-lacZ.

GLI1 = assay: localization of transfected GLI1 in COS7 cells (Example 2); format: cell-based, monkey; conditions: inhibitors for 1 h
Method: as §3
Cells were transfected (3 μg/p35 plate) with myc-tagged full-length CMV expression vectors with FUGENE (Roche). […]

all forms of MEK = conditions: cited from earlier work

CSCC[C@H](NC(=O)c1ccc(NC[C@@H](N)CS)cc1-c1ccccc1)C(=O)O [FTI-276]
GROWTH INHIBITION ([1]; 70 mg/kg/d): 70%-94% | GROWTH INHIBITION ([1]; 10, 50, 100 mg/kg/d): 75% | GROWTH INHIBITION (A/J mice lung adenomas): 58%

COC(=O)[C@H](CCSC)NC(=O)c1ccc(NC[C@@H](N)CS)cc1-c1ccccc1 [FTI-277]
IC50 (Glioma cell lines): 2 to 15.5 µM | GROWTH INHIBITION ([1]; 50 mg/kg/d, lung (A-549, Calu-1) tumors, NIH3T3): 80%

CC(C)=CCC/C(C)=C/CC/C(C)=C/CSc1ccccc1C(=O)O [FTS, S-farnesylthiosalicyclic acid]
IC50 (Rat-1 cells): 30 to 40 µM | IC50 [2]: 100 µM | GROWTH INHIBITION ([3]; 5 mg/kg/d): 82-90% of controls | growth of human melanoma in SCID mice ([3]; mouse, in vivo): significant reduction in the growth

O=C(Cc1ccncc1)N1CCC(=C2c3ccc(Cl)cc3CCc3cccnc32)CC1 [SCH44342]
IC50 [4]: 1 µM

O=C(Cc1cc[n+]([O-])cc1)N1CCN(C2c3ccc(Cl)cc3CCc3cc(Br)cnc32)CC1 (stereo not shown) [SCH59228]
GROWTH INHIBITION [5]: >90%

NC(=O)N1CCC(CC(=O)N2CCC([C@H]3c4ncc(Br)cc4CCc4cc(Cl)cc(Br)c43)CC2)CC1 [SCH66336]
GROWTH INHIBITION [6]: 76% | GROWTH INHIBITION (Pancreas (MIA PaCa-2); 40 mg/kg/d, MIA PaCa-2): 78% | GROWTH INHIBITION (Pancreas (MIA PaCa-2); 2, 5, 10, 40 mg/kg/d): 75% | GROWTH INHIBITION (NIH3T3): 100% | GROWTH INHIBITION (Nude mice/colon (DLD-1)): 76% | GROWTH INHIBITION (Nude mice/lung (A549)): 70% | GROWTH INHIBITION (Nude mice/lung (HTB177)): 83% | GROWTH INHIBITION (Pancreas (AsPC-1)): 72% | GROWTH INHIBITION (Pancreas (HPAF-11)): 67% | GROWTH INHIBITION (Pancreas (Hs 700T)): 67% | GROWTH INHIBITION (Colon (HCT116)): 84% | GROWTH INHIBITION (Prostate (DU-145)): 86% | GROWTH INHIBITION (Urinary bladder (EJ)): 100% | GROWTH INHIBITION [7]: 67%-86%

N#CC(=C(N)Sc1ccccc1N)C(C#N)=C(N)Sc1ccccc1N [U0126, 1,4-diamino-2,3-dicyano-1,4-bis[2-aminophenylthio]butadiene]
BrdU incorporation [8]: decreased BrdU incorporation | GLI1 and PTCH1 levels [9]: reduction of GLI1 and PTCH1 levels | effect on GLI1-enhanced proliferation [10]: reversed | localization of transfected GLI proteins without co-transfected RAS [11]: did not change the localization | effect on RAS-enhanced nuclear accumulation of GLI proteins ([11]; treatment for 1 h, 24 h after transfection): reversed | cells with cytoplasmic (c) localization (Frog Gli2): 30% | cells with cytoplasmic (c) localization [12]: 1% | BrdU incorporation (Me-3, SK-Mel2 and WM-115): decreased BrdU incorporation | decrease in the number of dividing cells (S/G2/M) (SK-Mel2 cells): 30% | GLI1 and PTCH1 mRNA levels (GLI1 and PTCH1 mRNA): rapid reduction of GLI1 and PTCH1 mRNA levels | localization of the constitutively nuclear GLI3R (GLI1, GLI3, GLI3R): no effect | localization of GLI1 (GLI1, GLI3, GLI3R; inhibitors for 1 h): increasing cytoplasmic localization of GLI1 | localization of GLI3 (GLI1, GLI3, GLI3R; inhibitors for 1 h): unaffected | effect on oncogenic RAS-induced nuclear accumulation of GLI1 (GLI1): reversed | higher affinity than PD 098059 (all forms of MEK): 44- to 357 fold
